Data on 25 compounds can be found in patent publication US10689367B2, “Triazole pyridyl compounds as agonists of the APJ receptor” (AMGEN INC., priority 2016, dated 2020).

Chain of human APJ receptor (P35414 whole entry): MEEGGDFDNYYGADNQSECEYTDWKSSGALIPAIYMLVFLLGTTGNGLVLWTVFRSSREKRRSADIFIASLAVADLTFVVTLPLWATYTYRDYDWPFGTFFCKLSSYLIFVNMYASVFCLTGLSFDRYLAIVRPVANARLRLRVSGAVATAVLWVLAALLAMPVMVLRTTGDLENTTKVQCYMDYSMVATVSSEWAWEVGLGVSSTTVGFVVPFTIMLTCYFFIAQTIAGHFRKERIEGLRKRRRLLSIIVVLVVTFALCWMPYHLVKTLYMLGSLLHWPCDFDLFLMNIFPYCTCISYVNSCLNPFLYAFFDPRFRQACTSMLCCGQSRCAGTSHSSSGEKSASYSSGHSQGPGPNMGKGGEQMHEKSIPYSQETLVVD

For the experiment, the target named is human APJ receptor (Homo sapiens (Human), UniProt P35414). The experiment can be described thus: [35S]GTPγS binding assay on membranes from CHO cells stably expressing human APJ receptor. Type of experiment: biochemical. The conditions noted are these: membranes of CHO cells stably expressing human APJ receptor, read-out: Activity hAPJ SPA EC50 IP. Summed up:
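[35S]GTPγS binding measured on membranes from CHO cells stably expressing FLAG-tagged human APJ, with GDP, MgCl2 and NaCl levels optimized beforehand. Incubation 90 min at RT, imager read-out; EC50 from non-linear regression, averaged over several independent experiments.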
(In general: Binding of GTPγS marks nucleotide exchange on a G protein.)
In general, EC50 refers to the concentration that produces a half-maximal response. For `COC[C@@H](C)n1c(NS(=O)(=O)[C@@H](C)[C@@H](OC(C)C)c2ncc(Cl)cn2)nnc1-c1cccc(OC)n1` [Example 178.0, (1S,2S)-1-(5-chloro-2-pyrimidinyl)-N-(4-((2R)-1-methoxy-2-propanyl)-5-(6-methoxy-2-pyridinyl)-4H-1,2,4-triazol-3-yl)-1-(2-propanyloxy)-2-propanesulfonamide], the EC50 stood at 0.32 nM.
In the case of `COC[C@H](C)n1c(NS(=O)(=O)[C@@H](C)[C@@H](OC(C)C)c2ncc(Cl)cn2)nnc1-c1cccc(OC)n1` [Example 179.0, (1S,2S)-1-(5-chloro-2-pyrimidinyl)-N-(4-((2S)-1-methoxy-2-propanyl)-5-(6-methoxy-2-pyridinyl)-4H-1,2,4-triazol-3-yl)-1-(2-propanyloxy)-2-propanesulfonamide], the EC50 was 0.64 nM.
For the compound `COc1cccc(-c2nnc(NS(=O)(=O)[C@@H](C)[C@H](OC)c3ncc(Cl)cn3)n2[C@H]2C[C@@H](OC)C2)n1` [Example 180.0, (1R,2S)-1-(5-chloro-2-pyrimidinyl)-1-methoxy-N-(4-(cis-3-methoxycyclobutyl)-5-(6-methoxy-2-pyridinyl)-4H-1,2,4-triazol-3-yl)-2-propanesulfonamide], the EC50 was determined as 74 nM.
Consider `COc1cccc(-c2nnc(NS(=O)(=O)[C@@H](C)[C@H](OC)c3ncc(Cl)cn3)n2[C@H]2C[C@H](OC)C2)n1` [Example 181.0, (1R,2S)-1-(5-chloro-2-pyrimidinyl)-1-methoxy-N-(4-(trans-3-methoxycyclobutyl)-5-(6-methoxy-2-pyridinyl)-4H-1,2,4-triazol-3-yl)-2-propanesulfonamide], for which the EC50 was determined as 190 nM.
For `COc1cccc(-c2nnc(NS(=O)(=O)[C@@H](C)[C@H](OC)c3ncc(Cl)cn3)n2C2CCC2)n1` [Example 182.0, (1R,2S)-1-(5-chloro-2-pyrimidinyl)-N-(4-cyclobutyl-5-(6-methoxy-2-pyridinyl)-4H-1,2,4-triazol-3-yl)-1-methoxy-2-propanesulfonamide], the EC50 was 25 nM.
Regarding `COc1cccc(-c2nnc(NS(=O)(=O)[C@@H](C)[C@H](OC)c3ncc(Cl)cn3)n2C2CCCC2)n1` [Example 183.0, (1R,2S)-1-(5-chloro-2-pyrimidinyl)-N-(4-cyclopentyl-5-(6-methoxy-2-pyridinyl)-4H-1,2,4-triazol-3-yl)-1-methoxy-2-propanesulfonamide], the EC50 was 4.8 nM.
In the case of `COc1cccc(-c2nnc(NS(=O)(=O)[C@@H](C)[C@H](OC)c3ncc(Cl)cn3)n2C2CCCCC2)n1` [Example 184.0, (1R,2S)-1-(5-chloro-2-pyrimidinyl)-N-(4-cyclohexyl-5-(6-methoxy-2-pyridinyl)-4H-1,2,4-triazol-3-yl)-1-methoxy-2-propanesulfonamide], the EC50 stood at 7.3 nM.
In the case of `COc1cccc(-c2nnc(NS(=O)(=O)[C@@H](C)[C@H](OC)c3ncc(Cl)cn3)n2[C@@H]2[C@@H](OC)CCC[C@H]2OC)n1` [Example 185.0, (1R,2S)-1-(5-chloro-2-pyrimidinyl)-N-(4-((1r,2R,6 S)-2,6-dimethoxycyclohexyl)-5-(6-methoxy-2-pyridinyl)-4H-1,2,4-triazol-3-yl)-1-methoxy-2-propanesulfonamide] it was 7.2 nM; in that of `COc1cccc(-c2nnc(NS(=O)(=O)[C@@H](C)[C@H](OC)c3ncc(Cl)cn3)n2Cc2cnoc2)n1` [Example 186.0, (1R,2S)-1-(5-chloropyrimidin-2-yl)-N-(4-(isoxazol-4-ylmethyl)-5-(6-methoxypyridin-2-yl)-4H-1,2,4-triazol-3-yl)-1-methoxypropane-2-sulfonamide], 98 nM.
In the case of `COc1cccc(-c2nnc(NS(=O)(=O)[C@@H](C)[C@H](C)c3ncc(Cl)cn3)n2Cc2cnoc2)n1` [Example 187.0, (2S,3R)-3-(5-chloropyrimidin-2-yl)-N-(4-(isoxazol-4-ylmethyl)-5-(6-methoxypyridin-2-yl)-4H-1,2,4-triazol-3-yl)butane-2-sulfonamide] it was 650 nM; in that of `COc1cccc(-c2nnc(NS(=O)(=O)[C@@H](C)[C@H](OC)c3cnc(C)cn3)n2Cc2cnoc2)n1` [Example 188.0, (1R,2S)-N-(4-(isoxazol-4-ylmethyl)-5-(6-methoxypyridin-2-yl)-4H-1,2,4-triazol-3-yl)-1-methoxy-1-(5-methylpyrazin-2-yl)propane-2-sulfonamide], 1400 nM.
As for `COc1cccc(-c2nnc(NS(=O)(=O)[C@@H](C)[C@H](OC)c3ncc(Cl)cn3)n2Cc2cc(C)no2)n1` [Example 189.0, (1R,2S)-1-(5-chloropyrimidin-2-yl)-1-methoxy-N-(5-(6-methoxypyridin-2-yl)-4-((3-methylisoxazol-5-yl)methyl)-4H-1,2,4-triazol-3-yl)propane-2-sulfonamide], the 50% effective concentration (EC50) is 18 nM.
As to `COc1cccc(-c2nnc(NS(=O)(=O)[C@@H](C)[C@H](C)c3ncc(Cl)cn3)n2Cc2cc(C)no2)n1` [Example 190.0, (2S,3R)-3-(5-chloropyrimidin-2-yl)-N-(5-(6-methoxypyridin-2-yl)-4((3-methylisoxazol-5-yl)methyl)-4H-1,2,4-triazol-3-yl)butane-2-sulfonamide], the EC50 worked out at 26 nM.
In the case of `COc1cccc(-c2nnc(NS(=O)(=O)[C@@H](C)[C@H](OC)c3cnc(C)cn3)n2Cc2cc(C)no2)n1` [Example 191.0, (1R,2S)-1-methoxy-N-(5-(6-methoxypyridin-2-yl)-4-((3-methylisoxazol-5-yl)methyl)-4H-1,2,4-triazol-3-yl)-1-(5-methylpyrazin-2-yl)propane-2-sulfonamide], the EC50 was 390 nM.
In the case of `CCc1noc(C)c1Cn1c(NS(=O)(=O)[C@@H](C)[C@H](OC)c2ncc(Cl)cn2)nnc1-c1cccc(OC)n1` [Example 192.0, (1R,2S)-1-(5-chloro-2-pyrimidinyl)-N-(4-((3-ethyl-5-methyl-1,2-oxazol-4-yl)methyl)-5-(6-methoxy-2-pyridinyl)-4H-1,2,4-triazol-3-yl)-1-methoxy-2-propanesulfonamide] it was 260 nM.
In the case of `CCc1noc(C)c1Cn1c(NS(=O)(=O)[C@@H](C)[C@H](C)c2ncc(Cl)cn2)nnc1-c1cccc(OC)n1` [Example 193.0, (2S,3R)-3-(5-chloro-2-pyrimidinyl)-N-(4-((3-ethyl-5-methyl-1,2-oxazol-4-yl)methyl)-5-(6-methoxy-2-pyridinyl)-4H-1,2,4-triazol-3-yl)-2-butanesulfonamide] it was 430 nM; in that of `CCc1noc(C)c1Cn1c(NS(=O)(=O)[C@@H](C)[C@@H](OC(C)C)c2ncc(C)cn2)nnc1-c1cccc(OC)n1` [Example 194.0, (1S,2S)-N-(4-((3-ethyl-5-methyl-1,2-oxazol-4-yl)methyl)-5-(6-methoxy-2-pyridinyl)-4H-1,2,4-triazol-3-yl)-1-(5-methyl-2-pyrimidinyl)-1-(2-propanyloxy)-2-propanesulfonamide], 56 nM; in that of `CCc1noc(C)c1Cn1c(NS(=O)(=O)[C@@H](C)[C@H](OC)c2cnc(C)cn2)nnc1-c1cccc(OC)n1` [Example 195.0, (1R,2S)-N-(4-((3-ethyl-5-methylisoxazol-4-yl)methyl)-5-(6-methoxypyridin-2-yl)-4H-1,2,4-triazol-3-yl)-1-methoxy-1-(5-methylpyrazin-2-yl)propane-2-sulfonamide], 650 nM.
In the case of `CCc1cc(Cn2c(NS(=O)(=O)[C@@H](C)[C@H](C)c3ncc(Cl)cn3)nnc2-c2cccc(OC)n2)on1` [Example 196.0, (2S,3R)-3-(5-chloropyrimidin-2-yl)-N-(4-((3-ethylisoxazol-5-yl)methyl)-5-(6-methoxypyridin-2-yl)-4H-1,2,4-triazol-3-yl)butane-2-sulfonamide] it was 4.8 nM; in that of `COc1cc(Cn2c(NS(=O)(=O)[C@@H](C)[C@H](OC)c3ncc(Cl)cn3)nnc2-c2cccc(OC)n2)on1` [Example 197.0, (1R,2S)-1-(5-chloro-2-pyrimidinyl)-1-methoxy-N-(4-((3-methoxy-1,2-oxazol-5-yl)methyl)-5-(6-methoxy-2-pyridinyl)-4H-1,2,4-triazol-3-yl)-2-propanesulfonamide], 12 nM; in that of `COc1cc(Cn2c(NS(=O)(=O)[C@@H](C)[C@H](C)c3ncc(Cl)cn3)nnc2-c2cccc(OC)n2)on1` [Example 198.0, (2S,3R)-3-(5-chloro-2-pyrimidinyl)-N-(4-((3-methoxy-1,2-oxazol-5-yl)methyl)-5-(6-methoxy-2-pyridinyl)-4H-1,2,4-triazol-3-yl)-2-butanesulfonamide], 24 nM.
As for `COc1cc(Cn2c(NS(=O)(=O)[C@@H](C)[C@H](OC)c3cnc(C)cn3)nnc2-c2cccc(OC)n2)on1` [Example 199.0, (1R,2S)-1-methoxy-N-(4-((3-methoxy-1,2-oxazol-5-yl)methyl)-5-(6-methoxy-2-pyridinyl)-4H-1,2,4-triazol-3-yl)-1-(5-methyl-2-pyrazinyl)-2-propanesulfonamide], the EC50 was determined as 220 nM.
Consider `COc1cccc(-c2nnc(NS(=O)(=O)[C@@H](C)[C@H](OC)c3cnc(C)cn3)n2Cc2cc(C(F)(F)F)no2)n1` [Example 203.0, (1R,2S)-1-methoxy-N-(5-(6-methoxy-2-pyridinyl)-4-((3-(trifluoromethyl)-1,2-oxazol-5-yl)methyl)-4H-1,2,4-triazol-3-yl)-1-(5-methyl-2-pyrazinyl)-2-propanesulfonamide], for which the EC50 is 56 nM.
On to `COc1cccc(-c2nnc(NS(=O)(=O)[C@@H](C)[C@H](C)c3ncc(Cl)cn3)n2Cc2cc(C(F)(F)F)no2)n1` [Example 204.0, (2S,3R)-3-(5-chloro-2-pyrimidinyl)-N-(5-(6-methoxy-2-pyridinyl)-4-((3-(trifluoromethyl)-1,2-oxazol-5-yl)methyl)-4H-1,2,4-triazol-3-yl)-2-butanesulfonamide], for which the EC50 was 21 nM.
Turning to `COc1cccc(-c2nnc(NS(=O)(=O)[C@@H](C)[C@H](OC)c3ncc(Cl)cn3)n2Cc2cc(C(F)(F)F)no2)n1` [Example 205.0, (1R,2S)-1-(5-chloro-2-pyrimidinyl)-1-methoxy-N-(5-(6-methoxy-2-pyridinyl)-4-((3-(trifluoromethyl)-1,2-oxazol-5-yl)methyl)-4H-1,2,4-triazol-3-yl)-2-propanesulfonamide], the EC50 was 4.5 nM.
